Like-named read-outs stand apart in the source and are kept apart here.
Experiments:
[1] = tested on: K. pneumoniae A-1797 expressing KPC-2 and VIM-4; assay: broth microdilution MIC, K. pneumoniae KPC-2 and VIM-4; type: cell-based; conditions: Fixed Mero (meropenem) 4 μg/mL
Outline: (§1)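 Compounds were titrated in 2-fold steps from 32 to 0.25 μg/mL in cation-adjusted Mueller Hinton broth with a β-lactam held at 4 μg/mL. Plates were inoculated by CLSI broth microdilution with strains pre-grown 3–5 h. After 16–20 h at 37 °C, MIC was read visually.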

[2] = tested on: E. coli ESBL4 expressing CTX-M-15; assay: broth microdilution MIC, E. coli CTX-M-15; type: cell-based; conditions: Fixed CAZ (ceftazidime) 4 μg/mL
Outline: as §1

[3] = target: T1, VIM-2 metallo β-lactamase (Pseudomonas aeruginosa, UniProt Q9K2N0); assay: β-lactamase enzyme inhibition, VIM-2; type: biochemical; conditions: Nitrocefin 100 μM, 486 nm; 15 min at 37° C. preincubation; read-out: IC50 VIM-2 (Class B)
T1 construct: made in house; host or cells: E. coli BL21(DE3)
Outline: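 Inhibitor and enzyme sat together 15 min at 37° C before 100 μM nitrocefin (final) was added and 486 nm absorbance read for 10 min. IC50 is the concentration halving initial hydrolysis rate relative to uninhibited wells. Protein came from Q sepharose anion exchange at pH 7.5, repeated to >90% purity.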

[4] = tested on: S. aureus MSSA-7 producing penicillinase PC-1; assay: broth microdilution MIC, S. aureus PC-1; type: cell-based; conditions: Fixed Pip (piperacillin) 4 μg/mL
Outline: as §1

KPC-2 β-lactamase = target: T2, KPC-2 β-lactamase (Klebsiella pneumoniae, UniProt Q9F663); assay: β-lactamase enzyme inhibition, KPC-2; type: biochemical
T2 construct: made in house; host or cells: E. coli BL21(DE3)
T2 sequence (Q9F663 25-293, looked up): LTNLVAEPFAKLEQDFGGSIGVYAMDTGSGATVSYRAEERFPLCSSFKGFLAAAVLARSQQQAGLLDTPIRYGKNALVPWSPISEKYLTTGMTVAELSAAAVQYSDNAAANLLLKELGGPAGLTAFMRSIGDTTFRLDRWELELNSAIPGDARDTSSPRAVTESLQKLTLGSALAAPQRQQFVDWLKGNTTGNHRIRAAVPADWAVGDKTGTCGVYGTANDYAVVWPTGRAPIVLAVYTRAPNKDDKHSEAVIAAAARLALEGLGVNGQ
Outline: (§2)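 IC50 was the inhibitor concentration halving the initial hydrolysis rate versus no-inhibitor wells, following a 15 min 37° C. enzyme–inhibitor preincubation. Substrates: imipenem read at 300 nm for KPC-2, cefotaxime at 260 nm for SHV-5, and nitrocefin (100 μM final) at 486 nm for OXA-1 and p99 AmpC. Enzymes were recombinant untagged proteins from E. coli BL21(DE3).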

[5] = tested on: K. pneumoniae 156319 expressing KPC-3; assay: broth microdilution MIC, K. pneumoniae KPC-3; type: cell-based; conditions: Fixed Mero (meropenem) 4 μg/mL
Outline: as §1

OXA-1 β-lactamase = target: T3, OXA-1 β-lactamase (Escherichia coli, UniProt P13661); assay: β-lactamase enzyme inhibition, OXA-1; type: biochemical; conditions: Nitrocefin 100 μM, 486 nm; 15 min at 37° C. preincubation; read-out: IC50 OXA-1 (Class D)
T3 construct: made in house; host or cells: E. coli BL21(DE3)
T3 sequence (P13661 26-276): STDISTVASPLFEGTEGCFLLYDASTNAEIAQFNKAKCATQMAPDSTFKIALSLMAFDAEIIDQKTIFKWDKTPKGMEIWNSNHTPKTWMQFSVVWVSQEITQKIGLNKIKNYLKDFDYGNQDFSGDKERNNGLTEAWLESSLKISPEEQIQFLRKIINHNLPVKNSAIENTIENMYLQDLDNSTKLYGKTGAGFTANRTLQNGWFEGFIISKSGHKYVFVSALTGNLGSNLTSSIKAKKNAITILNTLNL
Outline: as §2

p99 AmpC β-lactamase = target: T4, p99 AmpC β-lactamase (Enterobacter cloacae, UniProt P05364); assay: β-lactamase enzyme inhibition, p99 AmpC; type: biochemical
T4 construct: made in house; host or cells: E. coli BL21(DE3)
T4 sequence (P05364 21-381): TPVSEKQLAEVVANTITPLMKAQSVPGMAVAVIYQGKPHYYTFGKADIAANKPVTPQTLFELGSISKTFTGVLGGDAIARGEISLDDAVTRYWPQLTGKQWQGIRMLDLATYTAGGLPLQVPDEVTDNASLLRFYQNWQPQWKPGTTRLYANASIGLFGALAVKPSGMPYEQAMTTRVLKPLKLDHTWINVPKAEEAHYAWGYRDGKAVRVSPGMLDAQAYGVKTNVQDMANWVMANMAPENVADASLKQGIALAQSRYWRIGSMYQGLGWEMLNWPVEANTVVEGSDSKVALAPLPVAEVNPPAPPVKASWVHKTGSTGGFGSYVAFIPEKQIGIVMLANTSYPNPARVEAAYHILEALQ
Outline: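 Inhibitor and enzyme were incubated 15 min at 37°C first. The enzyme was recombinant p99 AmpC, untagged, from E. coli BL21(DE3), purified by ion-exchange and size-exclusion chromatography.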

[6] = tested on: E. cloacae 144200 expressing Class C P99 AmpC; assay: broth microdilution MIC, E. cloacae P99; type: cell-based; conditions: Fixed CAZ (ceftazidime) 4 μg/mL
Outline: as §1

SHV-5 β-lactamase = target: T5, SHV-5 β-lactamase (Klebsiella pneumoniae, UniProt P0A3M1); assay: β-lactamase enzyme inhibition, SHV-5; type: biochemical
T5 construct: made in house; host or cells: E. coli BL21(DE3)
T5 sequence (P0A3M1 22-286): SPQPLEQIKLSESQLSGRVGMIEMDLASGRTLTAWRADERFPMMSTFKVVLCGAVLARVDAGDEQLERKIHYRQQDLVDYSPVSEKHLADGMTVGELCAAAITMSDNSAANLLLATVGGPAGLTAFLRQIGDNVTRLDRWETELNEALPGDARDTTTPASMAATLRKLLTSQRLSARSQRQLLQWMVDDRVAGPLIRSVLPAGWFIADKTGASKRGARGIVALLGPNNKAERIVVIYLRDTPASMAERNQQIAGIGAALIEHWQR
Outline: as §2

[7] = tested on: P. aeruginosa Ps296 expressing VIM-2; assay: broth microdilution MIC, P. aeruginosa VIM-2; type: cell-based; conditions: Fixed Mero (meropenem) 4 μg/mL
Outline: as §1

[8] = imipenem substrate, 300 nm, 15 min at 37° C. preincubation, read-out: IC50 KPC-2 (Class A)

SMILES	MIC of exemplary compounds in presence of fixed β-lactams, K.P. A-1797 KPC-2 VIM-4 [1]	MIC of exemplary compounds in presence of fixed β-lactams, E. coli ESBL4 CTX-M-15 [2]	IC50 [3]	MIC of exemplary compounds in presence of fixed β-lactams, S. aureus MSSA-7 PC-1 [4]	IC50 (KPC-2 β-lactamase; [8])	MIC of exemplary compounds in presence of fixed β-lactams, K.P. 156319 KPC-3 [5]	IC50 (OXA-1 β-lactamase)	IC50 (p99 AmpC β-lactamase)	MIC of exemplary compounds in presence of fixed β-lactams, E. cl. 144200 p99 AmpC [6]	IC50 (SHV-5 β-lactamase)	MIC of exemplary compounds in presence of fixed β-lactams, P. aerug. Ps296 VIM-2 [7]	IC50 (KPC-2 β-lactamase)
CC(CCC(=O)N[C@H]1Cc2cccc(C(=O)O)c2OB1O)=NO [Example 17, (R)-2-Hydroxy-3-(4-hydroxyimino-pentanoylamino)-3,4-dihydro-2H-benzo[e][1,2]oxaborinine-8-carboxylic acid]	B (B represents the MIC in the presence of between 8 and 32 g/mL of a β-lactamase inhibitor)	C (C represents the MIC in the presence of ≤4 g/mL of a β-lactamase inhibitor)	1000 to 10000 nM	C (C represents the MIC in the presence of ≤4 g/mL of a β-lactamase inhibitor)	< 100 nM	B (B represents the MIC in the presence of between 8 and 32 g/mL of a β-lactamase inhibitor)	< 100 nM	< 100 nM	C (C represents the MIC in the presence of ≤4 g/mL of a β-lactamase inhibitor)	< 100 nM	C (C represents the MIC in the presence of ≤4 g/mL of a β-lactamase inhibitor)	–
CON=C(C)CCC(=O)N[C@H]1Cc2cccc(C(=O)O)c2OB1O [Example 18, (R)-2-Hydroxy-3-(4-methoxyimino-pentanoylamino)-3,4-dihydro-2H-benzo[e][1,2]oxaborinine-8-carboxylic acid]	A (A represents an MIC of the fixed β-lactam antibiotic in the presence of >32 g/mL of a β-lactamase inhibitor)	C (C represents the MIC in the presence of ≤4 g/mL of a β-lactamase inhibitor)	1000 to 10000 nM	C (C represents the MIC in the presence of ≤4 g/mL of a β-lactamase inhibitor)	< 100 nM	C (C represents the MIC in the presence of ≤4 g/mL of a β-lactamase inhibitor)	< 100 nM	< 100 nM	C (C represents the MIC in the presence of ≤4 g/mL of a β-lactamase inhibitor)	< 100 nM	B (B represents the MIC in the presence of between 8 and 32 g/mL of a β-lactamase inhibitor)	–
CNC(=O)CCC(=O)N[C@H]1Cc2cccc(C(=O)O)c2OB1O [Example 19, (R)-2-Hydroxy-3-(3-methylcarbamoyl-propionylamino)-3,4-dihydro-2H-benzo[e][1,2]oxaborinine-8-carboxylic acid]	B (B represents the MIC in the presence of between 8 and 32 g/mL of a β-lactamase inhibitor)	C (C represents the MIC in the presence of ≤4 g/mL of a β-lactamase inhibitor)	1000 to 10000 nM	B (B represents the MIC in the presence of between 8 and 32 g/mL of a β-lactamase inhibitor)	< 100 nM	C (C represents the MIC in the presence of ≤4 g/mL of a β-lactamase inhibitor)	< 100 nM	< 100 nM	C (C represents the MIC in the presence of ≤4 g/mL of a β-lactamase inhibitor)	< 100 nM	A (A represents an MIC of the fixed β-lactam antibiotic in the presence of >32 g/mL of a β-lactamase inhibitor)	–
CC(=O)NCCC(=O)N[C@H]1Cc2cccc(C(=O)O)c2OB1O [Example 20, (R)-3-(3-Acetylamino-propionylamino)-2-hydroxy-3,4-dihydro-2H-benzo[e][1,2]oxaborinine-8-carboxylicacid]	B (B represents the MIC in the presence of between 8 and 32 g/mL of a β-lactamase inhibitor)	C (C represents the MIC in the presence of ≤4 g/mL of a β-lactamase inhibitor)	1000 to 10000 nM	B (B represents the MIC in the presence of between 8 and 32 g/mL of a β-lactamase inhibitor)	< 100 nM	C (C represents the MIC in the presence of ≤4 g/mL of a β-lactamase inhibitor)	< 100 nM	< 100 nM	C (C represents the MIC in the presence of ≤4 g/mL of a β-lactamase inhibitor)	< 100 nM	A (A represents an MIC of the fixed β-lactam antibiotic in the presence of >32 g/mL of a β-lactamase inhibitor)	–
CS(=O)(=O)CCC(=O)N[C@H]1Cc2cccc(C(=O)O)c2OB1O [Example 21, (R)-2-Hydroxy-3-(3-methanesulfonyl-propionylamino)-3,4-dihydro-2H-benzo[e][1,2]oxaborinine-8-carboxylic acid]	B (B represents the MIC in the presence of between 8 and 32 g/mL of a β-lactamase inhibitor)	C (C represents the MIC in the presence of ≤4 g/mL of a β-lactamase inhibitor)	1000 to 10000 nM	C (C represents the MIC in the presence of ≤4 g/mL of a β-lactamase inhibitor)	< 100 nM	C (C represents the MIC in the presence of ≤4 g/mL of a β-lactamase inhibitor)	< 100 nM	< 100 nM	C (C represents the MIC in the presence of ≤4 g/mL of a β-lactamase inhibitor)	< 100 nM	A (A represents an MIC of the fixed β-lactam antibiotic in the presence of >32 g/mL of a β-lactamase inhibitor)	–
CS(=O)(=O)NCCC(=O)N[C@H]1Cc2cccc(C(=O)O)c2OB1O [Example 22, (R)-2-Hydroxy-3-(3-methanesulfonylamino-propionylamino)-3,4-dihydro-2H-benzo[e][1,2]oxaborinine-8-carboxylic acid]	B (B represents the MIC in the presence of between 8 and 32 g/mL of a β-lactamase inhibitor)	C (C represents the MIC in the presence of ≤4 g/mL of a β-lactamase inhibitor)	1000 to 10000 nM	C (C represents the MIC in the presence of ≤4 g/mL of a β-lactamase inhibitor)	–	C (C represents the MIC in the presence of ≤4 g/mL of a β-lactamase inhibitor)	< 100 nM	< 100 nM	C (C represents the MIC in the presence of ≤4 g/mL of a β-lactamase inhibitor)	< 100 nM	B (B represents the MIC in the presence of between 8 and 32 g/mL of a β-lactamase inhibitor)	< 100 nM
NC(=O)NCCC(=O)N[C@H]1Cc2cccc(C(=O)O)c2OB1O [Example 23, (R)-2-Hydroxy-3-(3-ureido-propionylamino)-3,4-dihydro-2H-benzo[e][1,2]oxaborinine-8-carboxylic acid]	B (B represents the MIC in the presence of between 8 and 32 g/mL of a β-lactamase inhibitor)	C (C represents the MIC in the presence of ≤4 g/mL of a β-lactamase inhibitor)	1000 to 10000 nM	C (C represents the MIC in the presence of ≤4 g/mL of a β-lactamase inhibitor)	< 100 nM	C (C represents the MIC in the presence of ≤4 g/mL of a β-lactamase inhibitor)	< 100 nM	< 100 nM	C (C represents the MIC in the presence of ≤4 g/mL of a β-lactamase inhibitor)	100 to 1000 nM	C (C represents the MIC in the presence of ≤4 g/mL of a β-lactamase inhibitor)	–
